Assay results published in patent US6808884B2, “Methods and compositions for detecting polynucleotide duplex damage and errors” (California Institute of Technology, priority 2000, dated 2004).

What was measured:
[1] = system: DNA duplexes (SEQ ID NO:1 / SEQ ID NO:2) having base-pair mismatches; assay: Photocleavage of 17mer DNA duplexes with varied X-Y base pair, 365 nm irradiation, PAGE analysis; format: biochemical; details: duplex 10 μM, complex 1 μM, pH 7.0, 13 min at 365 nm
Experimental: A set of DNA duplexes was prepared having the following sequence: 3′-[…]-5′(SEQ ID NO:1)
5′-[…]-3′(SEQ ID NO:2),
where X and Y were varied to provide A-T, G-C, and the following mismatches: C-C, C-A, T-T, A-A, T-C, T-G, G-A, and G-G. All oligonucleotides were prepared using standard phosphoramidite chemistry, and were purified by reverse phase HPLC. The oligonucleotides were 5′ end-labeled with γ-^32P ATP (Dupont-NEN) and T4 polynucleotide kinase (New England Biolabs).
Duplexes (10 μM) were incubated with Δ or Λ [Rh(bpy)2 (chrysi)]^3+(1 μM in 50 mM Tris, 20 mM NaOAc, 18 mM NaCl, pH 7.0) for 11 minutes, then irradiated for 13 min at 365 nm using an Oriel HgXe arc lamp. The products were analyzed by PAGE (20%, denaturing), imaged using a Molecular Dynamics Phosphorimager. […] Here, cleavage occurred to the 3′ side of the mismatch site. […] Unlike the other recognized mismatches, the cleavage 3′ to C-A results in two products having different gel mobility, possibly the result of chemically different polymer termini. The cleavage of A-A was also distinctive.

[2] = system: DNA duplexes with mismatch-sequence context combinations; assay: DNA photocleavage with bases 5′ and 3′ of the mismatch site systematically changed; format: biochemical; details: flanking bases 5′ and 3′ of the mismatch systematically changed

Substance	mismatch pairs cleaved among C-C, C-A, T-T, A-A, T-C, T-G, G-A, G-G [1]	photocleavage at A-A mismatch, relative to the other enantiomer [1]	photocleavage at A-A mismatch, at the A-A site itself [1]	photocleavage at A-A mismatch, base 3′ to the site [1]	photocleavage at C-A mismatch ([1]; at the mismatched C and the neighbouring base 3′)	photocleavage intensity at C-C mismatch ([1]; cleavage 3′ of the mismatch site)	photocleavage intensity at T-C mismatch ([1]; compared with C-C)	photocleavage intensity at T-T mismatch ([1]; compared with C-C)	mismatch-sequence context combinations at which photocleavage was observed (count) [2]	mismatch-sequence context combinations at which photocleavage was observed (share) [2] [%]
Λ[Rh(bpy)2 (chrysi)]Cl3 [Λ enantiomer]	A-A mismatch is the only pair cleaved	weaker cleavage than the Δ enantiomer								
Δ-[Rh(bpy)2 (chrysi)]Cl3 [Δ-[Rh(bpy)2 (chrysi)]^3+]			small amount of cleavage	strong cleavage	Strong cutting	strongest cleavage intensity	less intense cleavage	less intense cleavage	83 of 104	80
